Reference: ChEMBL document CHEMBL6121069, “A Medicinal Chemistry Perspective on Protein Tyrosine Phosphatase Nonreceptor Type 2 in Tumor Immunology” (J Med Chem, 2025)
*1 amine or outer side, *2 acyl side, *3 side chain or, on linkers, in order; H or OH if unused. Where a SMILES comes first, the peptide text is derived from it. [ ]: non-standard residue; d: D form. The star is where a group is joined. NHCH2(1,3-C6H4)CH2CO = O=C(Cc1cccc(CN[*:1])c1)[*:2]; F2Pmp = N[C@@H](Cc1ccc(C(F)(F)P(=O)(O)O)cc1)C(=O)O; Phenylacetyl(4-OH,3-OMe) = COc1cc(CC(=O)*)ccc1O; Benzoyl(3-Br,4-Me) = Cc1ccc(C(=O)*)cc1Br; X1 = Cc1ncsc1-c1ccc([C@H](C)N*)cc1; Hyp = O=C(O)[C@@H]1C[C@@H](O)CN1; Tle = CC(C)(C)[C@H](N)C(=O)O

These compounds were tested against T1, Tyrosine-protein phosphatase non-receptor type 2 (Homo sapiens, UniProt P17706) (assay: not given). Conditions: not given.
T1 sequence (P17706 whole entry): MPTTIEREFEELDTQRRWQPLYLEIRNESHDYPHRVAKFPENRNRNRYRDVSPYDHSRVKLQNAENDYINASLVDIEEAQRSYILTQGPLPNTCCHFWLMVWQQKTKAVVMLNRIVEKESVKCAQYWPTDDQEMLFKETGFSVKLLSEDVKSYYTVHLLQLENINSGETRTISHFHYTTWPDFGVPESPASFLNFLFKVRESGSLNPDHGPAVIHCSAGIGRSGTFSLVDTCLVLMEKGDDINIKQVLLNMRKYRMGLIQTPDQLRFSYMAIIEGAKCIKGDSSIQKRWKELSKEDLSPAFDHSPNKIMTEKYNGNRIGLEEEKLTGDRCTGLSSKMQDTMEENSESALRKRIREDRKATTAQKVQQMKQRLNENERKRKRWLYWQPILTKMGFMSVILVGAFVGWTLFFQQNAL

SMILES | IC50 [nM]
CN(Cc1cc(O)c(N2CC(=O)NS2(=O)=O)c(F)c1)C1CCC(C)(C)CC1 | 50
O=C1SN(CCOc2ccc([N+](=O)[O-])cc2)CN1Cc1ccccc1 | 1510
O=C1CN(c2c(O)cc(NC(=O)N[C@H](CO)c3ccccc3)cc2F)S(=O)(=O)N1 (racemic) | 5
CC(C)CCn1ccc(-c2ccc(O)c(N3CC(=O)NS3(=O)=O)c2F)n1 | < 1000

Molecular target: T1, Tyrosine-protein phosphatase non-receptor type 2
Experiment: not given
Conditions: not given
Remark: another data set of the same source

IC50 [nM] | SMILES
2.6 | O=C1CN(c2c(O)cc3c(c2F)C[C@H](NCCCC(F)F)CS3)S(=O)(=O)N1
8.85 | O=C1CN(c2c(O)cc3c(c2F)C[C@H](NCCCC(F)F)CO3)S(=O)(=O)N1
15.9 | CC(C)CCN[C@@H]1COc2cc(O)c(N3CC(=O)NS3(=O)=O)c(F)c2C1
1.34 | CC(C)CCN[C@@H]1CSc2cc(O)c(N3CC(=O)NS3(=O)=O)c(F)c2C1
15.2 | O=C1CN(c2c(O)cc3c(c2F)CC(CNCCC(F)F)N3)S(=O)(=O)N1 (stereo not given)

These compounds were tested against Protein cereblon/Tyrosine-protein phosphatase non-receptor type 2 (Homo sapiens, UniProt P17706+Q96SW2) (assay: not given). Conditions: hek293t.
Protein cereblon/Tyrosine-protein phosphatase non-receptor type 2, sequence (Q96SW2 whole entry, one chain of several): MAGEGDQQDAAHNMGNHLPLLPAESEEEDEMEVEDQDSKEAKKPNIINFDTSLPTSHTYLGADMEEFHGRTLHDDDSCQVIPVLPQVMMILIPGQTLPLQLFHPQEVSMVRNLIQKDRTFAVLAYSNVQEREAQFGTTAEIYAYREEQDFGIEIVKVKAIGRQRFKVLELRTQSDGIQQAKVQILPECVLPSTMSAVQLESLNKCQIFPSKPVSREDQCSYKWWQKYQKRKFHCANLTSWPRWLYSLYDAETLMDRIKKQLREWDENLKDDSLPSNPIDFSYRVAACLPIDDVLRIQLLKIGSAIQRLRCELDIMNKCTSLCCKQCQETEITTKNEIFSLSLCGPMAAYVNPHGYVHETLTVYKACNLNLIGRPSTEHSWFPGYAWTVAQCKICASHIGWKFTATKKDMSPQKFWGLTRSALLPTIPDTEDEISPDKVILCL

DC50 [nM] | SMILES
10 | Cn1c(=O)n(C2CCC(=O)NC2=O)c2cccc(C3CCN(C(=O)c4ccc5c(F)c(N6CC(=O)NS6(=O)=O)c(O)cc5c4)CC3)c21 (stereo not given)
> 1000 | O=C(CCOCCn1cc(C2(Nc3cccc4c3C(=O)N(C3CCC(=O)NC3=O)C4=O)CC2)nn1)NCCOc1ccc2cc(O)c(N3CC(=O)NS3(=O)=O)c(F)c2c1 (stereo not given)
< 50 | Cc1nn(CC(=O)Nc2ccc3c(F)c(N4CC(=O)NS4(=O)=O)c(O)cc3c2)c(C)c1-c1ccc2c(c1)n(C)c(=O)n2C1CCC(=O)NC1=O (stereo not given)
> 1000 | Cn1c(=O)n(C2CCC(=O)NC2=O)c2cccc(C3CCN(CCOCCC(=O)NCCOc4ccc5cc(O)c(N6CC(=O)NS6(=O)=O)c(F)c5c4)CC3)c21 (stereo not given)
< 10 | Cn1c(=O)n(C2CCC(=O)NC2=O)c2ccc(C3CCN(C(=O)CNc4ccc5c(F)c(N6CC(=O)NS6(=O)=O)c(O)cc5c4)CC3F)cc21 (stereo not given)

SMILES | DC50 [nM]
COc1cc(CC(=O)N[C@@H](Cc2ccccc2)C(=O)N[C@@H](Cc2ccc(C(F)(F)P(=O)(O)O)cc2)C(=O)N[C@@H](CCCCNC(=O)c2ccc(C)c(Br)c2)C(=O)NCc2cccc(CC(=O)N[C@H](C(=O)N3C[C@H](O)C[C@H]3C(=O)N[C@@H](C)c3ccc(-c4scnc4C)cc3)C(C)(C)C)c2)ccc1O ({Phenylacetyl(4-OH,3-OMe)}-F[F2Pmp]K(Benzoyl(3-Br,4-Me))[NHCH2(1,3-C6H4)CH2CO][Tle][Hyp]-X1) | 4.8

What follows are compounds tested on B16-F10 (assay: cells). Conditions: Mus musculus.
Description: Antiproliferative activity against mouse B16-F10 cells

SMILES | IC50 [nM]
CC(C)CCN[C@@H]1C[C@H]2C[C@@H]1c1c2cc(O)c(N2CC(=O)NS2(=O)=O)c1F | 7820
O=C1CN(c2c(O)cc(NC(=O)NC3CCCCC3)cc2F)S(=O)(=O)N1 | < 5000
O=C1CN(c2c(O)cc3c(c2F)C[C@H](NCCC2CCCC2)CC3)S(=O)(=O)N1 | < 50
CC1Cc2c(cc(O)c(N3CC(=O)NS3(=O)=O)c2F)CCN1 (stereo not given) | 270
CC(C)CCN[C@@H]1CNc2cc(O)c(N3CC(=O)NS3(=O)=O)c(F)c2C1 | 1450
CCN[C@@H]1CCc2cc(O)c(N3CC(=O)NS3(=O)=O)c(F)c2CC1 | 54000
O=C1CN(c2c(O)cc3c(c2F)C[C@H](NCCC2CC2)CC3)S(=O)(=O)N1 | 220
O=C1CN(c2c(O)cc3c(c2F)CCNCC3)S(=O)(=O)N1 | 350
Cc1ccnc(NCc2cc(F)c(N3CC(=O)NS3(=O)=O)c3[nH]ncc23)c1 | 350
COc1ccnc(NCc2cc(O)c(N3CC(=O)NS3(=O)=O)c(F)c2)c1 | 140
CC1(C)CCC(NCc2cc(O)c(N3CC(=O)NS3(=O)=O)c(F)c2)CC1 | 81000
CN(Cc1cc(O)c(N2CC(=O)NS2(=O)=O)c(F)c1)C1CCC(C)(C)CC1 | 14900
COc1cc(C)nc(NCc2cc(F)c(N3CC(=O)NS3(=O)=O)c3[nH]ncc23)c1 | 20
COc1cc(C)nc(NCc2cc(O)c(N3CC(=O)NS3(=O)=O)c(F)c2)c1 | 50
COc1cccc(NCc2cc(O)c(N3CC(=O)NS3(=O)=O)c(F)c2)n1 | 8660
O=C1CN(c2c(O)cc3c(c2F)C[C@H](NCCC2CCC2)CC3)S(=O)(=O)N1 | < 1000
O=C1CN(c2c(O)cc(NC(=O)N[C@H](CO)c3ccccc3)cc2F)S(=O)(=O)N1 (racemic) | < 5000
Cc1ccc(NCc2cc(O)c(N3CC(=O)NS3(=O)=O)c(F)c2)nn1 | 630

Tested on: B16-F10
Experiment: cells
Conditions: Mus musculus
Remark: another data set of the same source
Description: Antiproliferative activity against mouse B16-F10 cells assessed as inhibition of cell growth

SMILES | IC50 [nM]
O=C1CN(c2c(O)cc(CC3CCN(CC4CC4)C3)cc2F)S(=O)(=O)N1 (stereo not given) | 17400
CC(C)CCN1CCCC(Cc2cc(O)c(N3CC(=O)NS3(=O)=O)c(F)c2)C1 (stereo not given) | > 100000
CC(C)CCN1CCC(Cc2cc(O)c(N3CC(=O)NS3(=O)=O)c(F)c2)C1 (stereo not given) | 8430
O=C1CN(c2c(O)cc(CC3CCCNC3)cc2F)S(=O)(=O)N1 (stereo not given) | 25800
O=C1CN(c2c(O)cc(CC3CCNC3)cc2F)S(=O)(=O)N1 (stereo not given) | 7430
O=C1CN(c2c(O)cc(CC3CCCCNC3)cc2F)S(=O)(=O)N1 (stereo not given) | > 100000
O=C1CN(c2c(O)cc(CC3CCCN(CC4CC4)C3)cc2F)S(=O)(=O)N1 (stereo not given) | > 46400
